Data from PMC9673804, “Design, synthesis and antitumor evaluation of novel pyrazolo[3,4-d]pyrimidines incorporating different amino acid conjugates as potential DHFR inhibitors” (Journal of Enzyme Inhibition and Medicinal Chemistry, 2022).
“Also recorded” adds a separate entry of the source.

Columns and labels:
[1] = test system: normal immortalised pancreatic cell line (HPDE); assay: SRB cytotoxicity assay, normal HPDE cells; type: cell-based; details: normal immortalized HPDE cell line
Method: (§1) The SRB colorimetric assay was employed to assess the synthesized compounds’ cytotoxic effects on several cancer cell lines (Table 1)[11–14]. […] Furthermore, the effect of tested compounds was evaluated on the normal immortalized HPDE cell line.
(§2) Sulforhodamine B (SRB) assay was employed to assay in-vitro antitumor activities of all the synthesised compounds as describer previously. […] The cell lines were obtained from the American Type Culture Collection (Rockville, USA).

Bcl-2 [2] = assay: Bcl-2 ELISA in MCF-7; type: cell-based, human; details: dose-dependent
Method: (§3) The apoptotic effect of compound 7f on breast cancer cell line MCF-7 were evaluated by quantification of Bax, caspase 3/7, and Bcl-2 using Bax ELISA Kit ab199080 (ABCAM, Cambridge, UK), Caspase-Glo 3/7 assay kits (Promega, Fitchburg, MA, USA), and Bcl-2 ELISA Kit ab119506 (ABCAM, Cambridge, UK), according the instructions of manufacturers[11]^,[14]. The cells were treated with compounds 7f (½ IC50, IC50, or 2 ×IC50), and the activities were shown as a percentage change from the untreated control. The experiments were performed in triplicate applying two-way ANOVA test followed by Bonferroni posttest to evaluate the significance (p < 0.05).

caspase 3/7 = assay: Caspase-Glo 3/7 assay in MCF-7; type: cell-based, human; details: ½ IC50, IC50, 2×IC50, dose dependent
Method: as §3

[3] = test system: MCF-7 breast cancer cell line; assay: Annexin-V-FITC/PI cell apoptosis assay; type: cell-based, human; details: MCF-7, Annexin V-FITC/PI, 24 h
Method: Cell cycle analysis was done for the compound 7f against MCF-7 breast cancer cell line[11]^,[14]. Clearly, compound 7f enhanced the accumulation proportion of cells at the pre-G1 phase from 2.19 to 41.36%, and the accumulation percentages in S phase from 31.87 to 46.36%.
Flow cytometric analysis using Annexin-V-fluoresce in isothiocyanate (FITC) and propidium iodide (PI) staining kit (BD Pharmingen, San Diego, USA) was performed to assess the apoptosis. At 70% confluence, the cells were treated with compound 7f at different concentrations of (0–8 μmol/l) for 24 h. Then after trypsinization of cells, washing with PBS and centrifugation, the cells were mixed with FITC and PI in binding buffer. Becton Dickinson (Franklin Lakes, NJ, USA) was used to do the flow cytometry analysis[16]^,[17].

caspase 3 = assay: Western blot of caspase-3 expression in MCF-7; type: cell-based, human
Method: (§4) The effect of compound 7f on the expression of DHFR, Casp3, Bax, and Bcl-2 proteins in MCF-7 cancer cells was evaluated by western blotting as previously performed. The cancer cells treated or untreated were collected were harvested and blotted on SDS-polyacrylamide gel and separated by Cleaver electrophoresis unit (Cleaver, UK), transferred onto polyvinylidene fluoride (PVDF) membranes (Millipore, USA) for 30 min using a Semi-dry Electroblotter (Biorad, USA) at 2.5 A and 25 V for 30 min. […] After washing, the chemiluminescent Western ECL substrate (Perkin Elmer, Waltham, MA, USA) was applied to the blot and then incubated for 1 min with a mixture of equal volumes from ECL solution A and ECL solution B. The chemiluminescent signals were captured using a CCD camera-based imager (Chemi Doc imager, Biorad, USA), and the bands intensities were then measured by Image J software program. […] For colorimetric assays two-way ANOVA test followed by Bonferroni posttest were used, while for quantification expression on western blot, student-t-test was used (significance p < 0.05). […]
(§5) Sodium dodecyl sulfate polyacrylamide gel electrophoresis (SDS-PAGE) is used to separate proteins based on their size. […] The secondary antibody is typically linked to an enzyme that produces luminescence upon the reaction with its substrate. […]

[4] = test system: MCF-7 breast cancer cell line; assay: Flow cytometric cell cycle analysis; type: cell-based, human
Description: Clearly, compound 7f enhanced the accumulation proportion of cells at the pre-G1 phase from 2.19 to 41.36%, and the accumulation percentages in S phase from 31.87 to 46.36%. […] Figure 8).

Bcl-2 [5] = assay: Western blot of Bcl-2 expression in MCF-7; type: cell-based, human
Method: as §4, §5

[6] = test system: pancreatic human cancer cell lines (BxPC-3); assay: SRB cytotoxicity assay, BxPC-3; type: cell-based; details: BxPC-3 cells
Method: as §1, §2

N=C(N)NCCCC(NC(=O)c1ccc(Nc2ncnc3c2cnn3-c2ccccc2)cc1)C(=O)O (stereo not shown) [Compound 7f, 5-Guanidino-2-{4-[(1-phenyl-1H-pyrazolo[3,4-d]pyrimidin-4-yl)amino]benzamido}pentanoic acid]
IC50 [1]: > 50 µM
Bcl-2 production (ELISA) (Bcl-2 [2]): significantly reduced the Bcl-2 production
release of caspase 3/7 (caspase 3/7): significantly surge the release
Apoptosis Late ([3]; control 0.13): 21.31%
Apoptosis Early ([3]; control 0.66): 14.12%
Necrosis ([3]; control 1.4): 5.93%
western blotting OD Casp3 (caspase 3; MCF7 cells, Cont.MCF7 0.171): 0.575 OD
expression of caspase 3 (western blot) (caspase 3; MCF-7): significantly increased the expression
Comment (cell cycle arrest) ([4]; MCF-7 cells): arrested cell cycle at S phase; also recorded: Cell growth arrest at S
%Pre-G1 ([4]; MCF-7 cells treated with the compound, control 2.19): 41.36%
%G2/M ([4]; MCF-7 cells treated with the compound, control 12.01): 1.5%
%S ([4]; MCF-7 cells treated with the compound, control 31.87): 46.39%
%G0-G1 ([4]; MCF-7 cells treated with the compound, control 56.12): 52.11%
western blotting OD Bcl2 (Bcl-2 [5]; MCF7 cells, Cont.MCF7 0.762): 0.501 OD
expression of Bcl-2 (western blot) (Bcl-2 [5]; MCF-7, compound at IC50): significantly down-regulated the expression of Bcl-2
IC50 [6]: 7.09 ± 0.09 µM
